The source of these data is patent US20080132505A1 (Glaxo Group Limited, priority 2004, published 2008).

The experiment has as its target human cannabinoid CB2 receptor (Homo sapiens, UniProt P34972). Description: Cannabinoid CB2 receptor agonist activity (yeast reporter assay, FDGlu fluorescence). Format: cell-based. The following applies: for EC50: EC50 value at the cloned human cannabinoid CB2 receptor; for Emax: read-out: efficacy value (Emax relative to HU210) at the cloned human cannabinoid CB2 receptor. A digest of the protocol:
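S. cerevisiae MMY23 expressing human CB2 with a Gpa1/Gαi3 chimeric G-protein, grown 24 h at 30 °C with agonist (1% DMSO) in selective media containing 10 mM 3-aminotriazole and FDGlu, pH 7.0. Fluorescein fluorescence (485/535 nm) fitted by four-parameter curve; Emax and EMR relative to HU210.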
For orientation: A reporter such as luciferase makes a cellular process visible.

Molecules are shown by their SMILES. Bounds are passed on as bounds.

Chain of human cannabinoid CB2 receptor (P34972 whole entry): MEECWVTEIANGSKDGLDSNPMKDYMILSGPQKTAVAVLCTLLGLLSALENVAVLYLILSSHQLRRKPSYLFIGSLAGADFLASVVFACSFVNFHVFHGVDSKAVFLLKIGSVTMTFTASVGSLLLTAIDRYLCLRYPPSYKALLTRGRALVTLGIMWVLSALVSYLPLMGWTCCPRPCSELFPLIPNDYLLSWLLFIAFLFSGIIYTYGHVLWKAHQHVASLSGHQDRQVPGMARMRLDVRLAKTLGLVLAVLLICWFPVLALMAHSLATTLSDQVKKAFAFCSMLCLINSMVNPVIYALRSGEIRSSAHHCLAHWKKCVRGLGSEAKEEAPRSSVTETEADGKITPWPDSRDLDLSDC

As a reminder, the EC50 is the midpoint of the concentration-response curve. As usually defined, the Emax is the greatest response seen or fitted, relative to the assay's reference. Turning to `O=C(NCC1CCC1)c1cnc(Nc2cc(F)cc(C(F)(F)F)c2)nc1C(F)(F)F` [Example 258, 2-(3-Fluoro-5-trifluoromethylphenylamino)-4-trifluoromethyl-pyrimidine-5-carboxylic acid cyclobutylmethyl-amide], the half-maximal effective concentration (EC50) lay in the range of 300 to 1000 nM and the maximum response (Emax) is greater than 50%.

As for `COc1cc(Nc2ncc(C(=O)NCC3CCCCC3)c(C(F)(F)F)n2)ccc1Cl` [Example 245, 2-(4-Chloro-3-methoxyphenylamino)-4-trifluoromethyl-pyrimidine-5-carboxylic acid cyclohexylmethyl-amide], the EC50 lay within 20 to 300 nM and the Emax is greater than 50%.

With `O=C(NCc1ccncc1)c1ccc(Nc2cccc(Cl)c2)nc1C(F)(F)F` [Example 457, 6-(3-Chloro-phenylamino)-N-(pyridin-4-ylmethyl)-2-trifluoromethyl-nicotinamide], the maximal response (Emax) is greater than 50%.

Take `Cc1cc(Nc2ncc(C(=O)NCC3CCOCC3)c(C(F)(F)F)n2)ccc1Cl` [Example 187, 2-(4-Chloro-3-methylphenylamino)-4-trifluoromethyl-pyrimidine-5-carboxylic acid (tetrahydropyran-4-ylmethyl)-amide]: the 50% effective concentration (EC50) lay in the range of 20 to 300 nM and the Emax was greater than 50%.

As for `CCN(Cc1ccccc1)C(=O)c1cnc(Nc2cccc(Cl)c2)nc1C(F)(F)F` [Example 299, 2-(3-Chloro-phenylamino)-4-trifluoromethyl-pyrimidine-5-carboxylic acid N-benzyl-N-ethyl-amide], the EC50 is 300 to 1000 nM and the maximum response (Emax) was greater than 50%.

Turning to `Cc1ccc(Cl)c(Nc2ncc(C(=O)NCC3CCOCC3)c(C(F)(F)F)n2)c1` [Example 113, 2-(2-Chloro-5-methyl-phenylamino)-4-tri-fluoromethyl-pyrimidine-5-carboxylic acid (tetrahydropyran-4-ylmethyl)-amide], the EC50 was in the range of 300 to 1000 nM and the maximal response (Emax) was greater than 50%.

In the case of `O=C(NC1CCCC1)c1cnc(Nc2cccc(Cl)c2)nc1C(F)(F)F` [Example 14, 2-(3-Chlorophenylamino)-4-trifluoromethylpyrimidine-5-carboxylic acid cyclopentylamide], the concentration for a half-maximal effect (EC50) lay within 20 to 300 nM and the Emax is greater than 50%.

Consider `O=C(NCC1CCC1)c1cnc(Nc2cccc(Cl)c2Cl)nc1C(F)(F)F` [Example 200, 2-(2,3-Dichlorophenylamino)-4-trifluoromethyl-pyrimidine-5-carboxylic acid cyclobutylmethyl-amide], for which the concentration for a half-maximal effect (EC50) was in the range of 20 to 300 nM and the maximal effect (Emax) was greater than 50%.

Regarding `Cc1cc(Cl)ccc1Nc1ncc(C(=O)NCC2CCC2)c(C(F)(F)F)n1` [Example 253, 2-(2-Methyl-4-chloro-phenylamino)-4-trifluoromethyl-pyrimidine-5-carboxylic acid cyclobutylmethyl-amide], the 50% effective concentration (EC50) lay in the range of 20 to 300 nM and the maximal response (Emax) was greater than 50%.

With `O=C(NCC1CCOCC1)c1cnc(Nc2cc(Cl)cc(Cl)c2)nc1C(F)(F)F` [Example 36, 2-(3,5-Dichlorophenylamino)-4-trifluoromethylpyrimidine-5-carboxylic acid (tetrahydropyran-4-ylmethyl)-amide], the EC50 is 20 to 300 nM and the Emax is greater than 50%.

Regarding `O=C(NCC1CCCCC1)c1cnc(Nc2cccc(Cl)c2F)nc1C(F)(F)F` [Example 167, 2-(3-Chloro-2-fluorophenylamino)-4-trifluoromethyl-pyrimidine-5-carboxylic acid cyclohexylmethyl-amide], the concentration giving a half-maximal response (EC50) fell in the range of 20 to 300 nM and the maximal effect (Emax) is greater than 50%.

Take `Cc1ccc(Nc2ncc(C(=O)NCC3CCCCC3)c(C(F)(F)F)n2)c(Cl)c1` [Example 244, 2-(2-Chloro-4-methylphenylamino)-4-trifluoromethyl-pyrimidine-5-carboxylic acid cyclohexylmethyl-amide]: the EC50 is 20 to 300 nM and the maximal response (Emax) is greater than 50%.

As for `O=C(NCc1ccccc1)c1cnc(Nc2cccc(Cl)c2Cl)nc1C(F)(F)F` [Example 300, 2-(2,3-Dichloro-phenylamino)-4-trifluoromethyl-pyrimidine-5-carboxylic acid benzylamide], the EC50 lay in the range of 300 to 1000 nM and the Emax was greater than 50%.

Turning to `Cc1ccc(Cl)cc1Nc1ncc(C(=O)NCC2CCCCC2)c(C(F)(F)F)n1` [Example 246, 2-(5-Chloro-2-methylphenylamino)-4-trifluoromethyl-pyrimidine-5-carboxylic acid cyclohexylmethyl-amide], the concentration giving a half-maximal response (EC50) fell in the range of 20 to 300 nM and the maximal response (Emax) was greater than 50%.

`N#Cc1cccc(Nc2ncc(C(=O)NCC3CCCC3)c(C(F)(F)F)n2)c1` [Example 173, 2-(3-Cyanophenylamino)-4-trifluoromethyl-pyrimidine-5-carboxylic acid cyclopentylmethyl-amide]: the EC50 lay within 20 to 300 nM and the Emax is greater than 50%.

On to `Cc1ccc(Cl)cc1Nc1ncc(C(=O)NCC2CCOCC2)c(C(F)(F)F)n1` [Example 108, 2-(5-Chloro-2-methyl-phenylamino)-4-tri-fluoromethyl-pyrimidine-5-carboxylic acid (tetrahydropyran-4-ylmethyl)-amide], for which the EC50 lay in the range of 300 to 1000 nM and the Emax is greater than 50%.

`O=C(NCc1ccnc(F)c1)c1cnc(Nc2cc(Cl)ccc2Cl)nc1C(F)(F)F` [Example 355, 2-(2,5-Dichloro-phenylamino)-4-trifluoromethyl-pyrimidine-5-carboxylic acid (2-fluoro-pyridin-4-ylmethyl)-amide]: the EC50 was in the range of 20 to 300 nM.

With `O=C(NCC1CC1)c1cnc(Nc2ccc(Cl)cc2Cl)nc1C(F)(F)F` [Example 241, 2-(2,4-Dichlorophenylamino)-4-trifluoromethylpyrimidine-5-carboxylic acid cyclopropylmethyl-amide], the EC50 lay in the range of 20 to 300 nM and the Emax was greater than 50%.

With `O=C(NCC1CCC1)c1cnc(Nc2ccccc2Cl)nc1C(F)(F)F` [Example 257, 2-(2-Chlorophenylamino)-4-trifluoromethyl-pyrimidine-5-carboxylic acid cyclobutylmethyl-amide], the concentration giving a half-maximal response (EC50) is 300 to 1000 nM and the Emax was greater than 50%.

For `O=C(NCC1CC1)c1cnc(Nc2cccc(F)c2)nc1C(F)(F)F` [Example 83, 2-(3-Fluoro-phenylamino)-4-trifluoromethyl-pyrimidine-5-carboxylic acid cyclopropylmethyl-amide], the EC50 lay within 300 to 1000 nM and the Emax was greater than 50%.

Consider `O=C(c1cnc(Nc2cccc(Cl)c2Cl)nc1C(F)(F)F)N1CCOCC1` [Example 6, 1-[2-(2,3-Dichlorophenylamino)-4-trifluoromethylpyrimidin-5-yl]-1-morpholin-4-yl-methanone], for which the EC50 lay in the range of 20 to 300 nM and the Emax is greater than 50%.

`O=C(NCC1CCCC1)c1cnc(Nc2cccc(Cl)c2)nc1C(F)(F)F` [Example 2, 2-(3-Chlorophenylamino)-4-trifluoromethylpyrimidine-5-carboxylic acid cyclopentylmethyl-amide]: the EC50 lay within 20 to 300 nM and the maximum response (Emax) was greater than 50%.

As to `O=C(NCC1CCCC1)c1cnc(Nc2c(Cl)cccc2Cl)nc1C(F)(F)F` [Example 43, 2-(2,6-Dichlorophenylamino)-4-trifluoromethylpyrimidine-5-carboxylic acid cyclopentylmethyl-amide], the concentration giving a half-maximal response (EC50) lay within 20 to 300 nM and the maximal effect (Emax) was greater than 50%.

As to `O=C(NCc1ccnc(F)c1)c1cnc(Nc2cccc(Cl)c2)nc1C(F)(F)F` [Example 294, 2-(3-Chloro-phenylamino)-4-trifluoromethyl-pyrimidine-5-carboxylic acid (2-fluoro-pyridin-4-ylmethyl)-amide], the EC50 was in the range of 20 to 300 nM.

As for `O=C(NCC1CCCCC1)c1cnc(Nc2ccc(F)cc2F)nc1C(F)(F)F` [Example 221, 2-(2,4-Difluoro-phenylamino)-4-trifluoromethyl-pyrimidine-5-carboxylic acid cyclohexylmethyl-amide], the half-maximal effective concentration (EC50) lay within 20 to 300 nM and the Emax is greater than 50%.

As for `O=C(NCC1CCOCC1)c1cnc(Nc2ccc(Cl)cc2C(F)(F)F)nc1C(F)(F)F` [Example 104, 2-(2-Trifluoromethyl-4-chlorophenylamino)-4-trifluoromethyl-pyrimidine-5-carboxylic acid (tetrahydro-pyran-4-ylmethyl)-amide], the EC50 fell in the range of 300 to 1000 nM and the maximal effect (Emax) was greater than 50%.

With `O=C(c1cnc(Nc2cccc(Br)c2)nc1C(F)(F)F)N1CCOCC1` [Example 11, 1-[2-(3-Bromophenylamino)-4-trifluoromethylpyrimidin-5-yl]-1-morpholin-4-yl-methanone], the EC50 was in the range of 20 to 300 nM and the Emax was greater than 50%.

Take `Cc1cc(CNC(=O)c2cnc(Nc3cccc(Cl)c3)nc2C(F)(F)F)ccn1` [Example 303, 2-(3-Chloro-phenylamino)-4-trifluoromethyl-pyrimidine-5-carboxylic acid (2-methyl-pyridin-4-ylmethyl)-amide]: the EC50 was in the range of 300 to 1000 nM.

Regarding `O=C(NCC1CCCC1)c1cnc(Nc2cc(F)cc(F)c2)nc1C(F)(F)F` [Example 96, 2-(3,5-Difluoro-phenylamino)-4-trifluoromethyl-pyrimidine-5-carboxylic acid cyclopentylmethyl-amide], the EC50 fell in the range of 300 to 1000 nM and the Emax was greater than 50%.

Consider `O=C(NCC1CCCCC1)c1cnc(Nc2ccc(Cl)cc2Cl)nc1C(F)(F)F` [Example 16, 2-(2,4-Dichlorophenylamino)-4-trifluoromethylpyrimidine-5-carboxylic acid cyclohexylmethyl-amide], for which the EC50 was 20 to 300 nM and the Emax was greater than 50%.

For the molecule `O=C(NCC1CCC1)c1cnc(Nc2cccc(Cl)c2F)nc1C(F)(F)F` [Example 195, 2-(3-Chloro-2-fluorophenylamino)-4-trifluoromethyl-pyrimidine-5-carboxylic acid cyclobutylmethyl-amide], the EC50 was 20 to 300 nM and the Emax was greater than 50%.
